From PMC7669867, “Synthesis and initial screening of lactate dehydrogenase inhibitor activity of 1,3-benzodioxole derivatives” (Scientific Reports, 2020)
Several values for one entry are separate records, joined by “and”; a condition that tells them apart may be missing. Identical values can stand only once. Like-named read-outs stand apart in the source and are kept apart here.

Columns and labels:
LDHA = conditions: cited from earlier work; for LDHA inhibitory activity: at concentrations up to 1 mM
[1] = biological target: T1, purified recombinant human LDHB protein (Homo sapiens, UniProt P07195); assay: In vitro LDHB activity assay (NAD+ converted to NADH); type: biochemical
T1 construct: purchased Abcam
T1 sequence (P07195 whole entry): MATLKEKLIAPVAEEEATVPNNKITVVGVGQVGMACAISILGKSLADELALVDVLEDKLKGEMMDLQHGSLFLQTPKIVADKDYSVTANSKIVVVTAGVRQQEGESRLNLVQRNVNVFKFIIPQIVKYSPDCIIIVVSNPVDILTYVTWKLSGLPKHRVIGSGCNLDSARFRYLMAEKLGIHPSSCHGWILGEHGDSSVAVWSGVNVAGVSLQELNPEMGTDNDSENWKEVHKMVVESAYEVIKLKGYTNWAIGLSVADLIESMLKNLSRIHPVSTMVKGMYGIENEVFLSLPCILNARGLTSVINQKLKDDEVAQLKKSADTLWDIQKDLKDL
Method: (§1) The in vitro evaluation of the LDHA inhibitor activities of the synthesized compounds was determined by the NADH intensity decrease through oxidation in a solution of HEPES-K^+, NADH, and pyruvate at a pH = 7.2. The NADH oxidation fluorescence intensity was measured using a spectrofluorometer at 340 nm excitation and 460 nm emission wavelengths, representing the NADH-specific fluorescence spectrum. Furthermore, the in vitro evaluation of the LDHB inhibitor activity was determined as a reverse reaction, which converts lactate to pyruvate by determining the amount of NAD^+ converted to NADH using the above-mentioned spectrophotometric experimental setting (Table 2). Based on this analysis, the half-maximal inhibitory concentration (IC50) of the synthesized compounds was obtained.
In vitro analysis was determined the amount of NAD^+ converted to NADH[33]. The assay mixture composed of 100 mM Tris–HCl buffer (pH 8.0), 200 mM sodium L-lactate, 2.5 mM NAD^+, and 100 ng of purified recombinant human LDHB protein (Abcam). The fluorescence intensity of NADH was measured using a spectrofluorometer (Spectramax M2) at 340 nm as excitation wavelength and 460 nm as emission wavelength which is the specific fluorescence of NADH.

[2] = biological target: T2, purified recombinant human LDHA protein (Homo sapiens, UniProt P00338); assay: In vitro LDHA inhibitor activity (NADH fluorescence decrease); type: biochemical; conditions: for LDHB/LDHA: ratio of LDHB IC50 to LDHA IC50 (selectivity)
T2 construct: purchased Abcam
Method: as §1
In vitro evaluation on LDHA inhibitor activity. LDHA activity assay was performed in accordance with previous studies[16],[18]. Briefly, the various concentrations of compounds were incubated with reaction buffer containing 20 mM HEPES-K^+, 20 μM NADH, 2 mM pyruvate, and 100 ng of purified recombinant human LDHA protein (Abcam, Cambridge, UK). The fluorescence of NADH, which has an excitation wavelength of 340 nm and an emission wavelength of 460 nm, was detected using a microplate spectrofluorometer (Spectramax M2; Molecular Devices, Sunnyvale, CA).

[3] = tested on: human pancreatic cancer PANC-1 cells; assay: Cell viability MTT assay, PANC-1; type: cell-based; conditions: read-out: PANC-1 (GI50)
Method: (§2) The human pancreatic cancer cell lines, PANC-1 and MiaPaCa-2, human lung cancer A549 cells, human breast cancer MCF-7, and human glioma U87 cells were obtained from the Korean cell line bank (Seoul, Korea). The cells were cultured in Dulbecco’s Modified Eagle Medium (DMEM; ThermoFisher Scientific, Waltham, MA) supplemented with 10% fetal bovine serum (FBS; Sigma-Aldrich) and 1% penicillin/streptomycin (ThermoFisher Scientific). The cells were cultured at 37 °C in an atmosphere containing 5% CO2.
(§3) The potential cytotoxicity of compounds at different concentrations was evaluated using the MTT assay. Briefly, cancer cell lines were pre-incubated in 96-well plates with compounds for 48 h. Subsequently, MTT working solution (2 mg/mL in phosphate buffer solution) was added to each well and the plate was incubated for 4 h at 37 °C in an atmosphere containing 5% CO2. Then, the conditioned media were aspirated, and the formed formazan crystals in living cells were quantified using the microplate reader (Spectramax M2) at 540 nm. The concentrations that produce 50% cell growth inhibition (GI50) were calculated by curves constructed by the plot of cell survival by an assistant of PRISM software (GraphPad, San Diego, CA).

[4] = tested on: human pancreatic cancer MiaPaCa-2 cells; assay: Cell viability MTT assay, MiaPaCa-2; type: cell-based; conditions: read-out: MiaPaCa-2 (GI50)
Method: as §2, §3

human glioma U87 cells = assay: Cell viability MTT assay, U87; type: cell-based; conditions: U-87 MG, 48 h, read-out: U87 (GI50)
Method: as §2, §3

[5] = tested on: human breast cancer MCF-7; assay: Cell viability MTT assay, MCF-7; type: cell-based; conditions: read-out: MCF-7 (GI50)
Method: as §2, §3

[6] = tested on: human lung cancer A549 cells; assay: Cell viability MTT assay, A549; type: cell-based; conditions: read-out: A549 (GI50)
Method: as §2, §3

in vitro [7] = type: in vitro ADME, rat; conditions: rat, plasma
Method: (§4) Human and rat plasma (Sigma-Aldrich) are incubated at 37 °C with test compounds. During the incubation, aliquots are withdrawn at 0, 30, 120 min time points and acetonitrile solution (containing chlorpropamide) is added. After vortexing, the aliquots are centrifuged and the supernatant is withdrawn for analysis by LC–MS/MS.

in vitro [8] = type: in vitro ADME, human; conditions: human, plasma
Method: as §4

CYP1A2 = biological target: T3, CYP1A2 (Homo sapiens, UniProt P05177); assay: CYP isozymes activity assay, CYP1A2; type: in vitro ADME; conditions: pooled human liver microsomes, phenacetin; ketoconazole at 0.1 µM
T3 construct: Pooled Human liver microsomes (Sigma-Aldrich; 0.25 mg/mL); tissue Sigma-Aldrich; host or cells: pooled human liver microsomes
T3 sequence (P05177 1-516): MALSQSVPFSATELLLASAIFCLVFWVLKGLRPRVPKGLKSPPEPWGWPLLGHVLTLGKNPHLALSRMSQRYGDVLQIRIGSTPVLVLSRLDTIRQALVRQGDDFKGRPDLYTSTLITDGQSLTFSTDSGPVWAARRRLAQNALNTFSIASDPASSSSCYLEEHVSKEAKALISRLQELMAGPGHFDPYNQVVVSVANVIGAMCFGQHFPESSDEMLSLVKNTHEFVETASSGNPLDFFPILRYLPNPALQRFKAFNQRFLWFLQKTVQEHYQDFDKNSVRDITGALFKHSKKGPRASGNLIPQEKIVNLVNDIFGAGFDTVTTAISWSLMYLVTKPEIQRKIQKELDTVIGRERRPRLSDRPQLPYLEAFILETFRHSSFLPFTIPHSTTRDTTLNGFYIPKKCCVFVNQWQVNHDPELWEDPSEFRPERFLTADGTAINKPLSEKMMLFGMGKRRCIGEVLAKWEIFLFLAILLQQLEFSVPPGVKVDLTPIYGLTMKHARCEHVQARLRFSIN
Method: (§5) Pooled Human liver microsomes (Sigma-Aldrich; 0.25 mg/mL), 0.1 M phosphate buffer solution (pH 7.4), the five most commonly used substrate cocktails, such as 50 µM phenacetin (CYP1A2), 10 µM diclofenac […], 100 µM S-mephenytoin (CYP2C19) 5 µM dextromethorphan (CYP2D6), and 2.5 µM midazolam (CYP3A4), and compound 10 are pre-incubated at 37 °C for 5 min, then incubated with NADPH generation system solution for 15 min. To finish the enzymatic reaction, an acetonitrile solution (containing terfenadine) is added. The reaction tubes are centrifuged and the supernatant is withdrawn for analysis by LC–MS/MS.

CYP2C9 = biological target: T4, CYP2C9 (Homo sapiens, UniProt P11712); assay: CYP isozymes activity assay, CYP2C9; type: in vitro ADME; conditions: pooled human liver microsomes, diclofenac; ketoconazole at 0.1 µM
T4 construct: Pooled Human liver microsomes (Sigma-Aldrich; 0.25 mg/mL); tissue Sigma-Aldrich; host or cells: pooled human liver microsomes
T4 sequence (P11712 whole entry): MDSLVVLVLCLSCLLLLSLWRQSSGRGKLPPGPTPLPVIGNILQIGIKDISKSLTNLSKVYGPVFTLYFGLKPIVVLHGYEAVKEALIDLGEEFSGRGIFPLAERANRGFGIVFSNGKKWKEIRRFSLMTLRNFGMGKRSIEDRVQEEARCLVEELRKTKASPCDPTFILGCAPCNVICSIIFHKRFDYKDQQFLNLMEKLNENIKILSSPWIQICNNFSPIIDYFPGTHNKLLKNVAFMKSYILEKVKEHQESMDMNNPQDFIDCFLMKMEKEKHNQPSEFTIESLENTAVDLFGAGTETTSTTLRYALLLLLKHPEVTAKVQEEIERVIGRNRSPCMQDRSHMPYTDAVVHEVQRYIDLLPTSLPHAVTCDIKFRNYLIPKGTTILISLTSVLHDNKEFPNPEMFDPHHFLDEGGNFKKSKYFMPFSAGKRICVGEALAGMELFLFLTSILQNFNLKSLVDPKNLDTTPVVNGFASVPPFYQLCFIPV
Method: as §5

CYP2C19 = biological target: T5, CYP2C19 (Homo sapiens, UniProt P33261); assay: CYP isozymes activity assay, CYP2C19; type: in vitro ADME; conditions: pooled human liver microsomes, S-mephenytoin; ketoconazole at 0.1 µM
T5 construct: Pooled Human liver microsomes (Sigma-Aldrich; 0.25 mg/mL); tissue Sigma-Aldrich; host or cells: pooled human liver microsomes
T5 sequence (P33261 whole entry): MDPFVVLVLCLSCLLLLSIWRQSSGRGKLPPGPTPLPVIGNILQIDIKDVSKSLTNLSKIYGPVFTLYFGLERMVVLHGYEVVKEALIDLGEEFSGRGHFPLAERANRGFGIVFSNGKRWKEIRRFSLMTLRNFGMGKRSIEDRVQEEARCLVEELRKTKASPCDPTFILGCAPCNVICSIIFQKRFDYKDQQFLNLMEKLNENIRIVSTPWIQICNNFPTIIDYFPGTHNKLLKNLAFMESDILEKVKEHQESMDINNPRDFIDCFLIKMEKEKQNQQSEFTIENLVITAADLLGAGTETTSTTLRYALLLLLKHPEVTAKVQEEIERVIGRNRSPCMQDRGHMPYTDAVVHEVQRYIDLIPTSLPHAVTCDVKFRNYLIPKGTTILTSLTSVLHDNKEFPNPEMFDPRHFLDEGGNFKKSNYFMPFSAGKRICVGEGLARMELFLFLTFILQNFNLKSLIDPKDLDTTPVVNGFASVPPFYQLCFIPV
Method: as §5

[9] = synthesized compounds, read-out: LDHB IC50
[10] = synthesized compounds, read-out: LDHA IC50
[11] = Homo sapiens, PANC-1, MTT, 48 h

Row | Compound | IC50 [1, 9] [µM] | IC50 [2, 10] [µM] | GI50 [3, 11] [µM] | GI50 ([4]; MIA PaCa-2, MTT, 48 h) [mM] | GI50 (human glioma U87 cells; MTT) [mM] | GI50 ([5]; MCF7, MTT, 48 h) [mM] | GI50 ([6]; A549, MTT, 48 h) [mM] | further results
1 | c1ccc2c(c1)OCO2 [1,3-benzodioxole] | – | – | – | – | – | – | – | LDHA inhibitory activity (LDHA): did not exhibit an LDHA inhibitory activity
2 | O=C(OCc1ccc2c(c1)OCO2)c1ccc(Br)cc1 [Compound 1] | 79 | > 1000 | > 1000 | > 1 | > 1 | > 1 | > 1 | –
3 | O=C(OCc1ccc2c(c1)OCO2)c1ccc(I)cc1 [Compound 3] | 151 | > 1000 | 269 | > 1 | > 1 | > 1 | > 1 | –
4 | Nc1cccc(C(=O)OCc2ccc3c(c2)OCO3)c1 [Compound 4] | 7.87 | 182 | 203 | > 1 | 0.38 | 0.729 | > 1 | LDHB/LDHA [2]: 0.043
5 | O=C(OCc1ccc2c(c1)OCO2)c1ccc(F)cc1 [Compound 5] | > 1000 | 478 | 644 | > 1 | > 1 | > 1 | > 1 | –
6 | O=C(CC(F)(F)F)OCc1ccc2c(c1)OCO2 [Compound 6] | 130 | 452 | > 1000 | > 1 | > 1 | > 1 | > 1 | LDHB/LDHA [2]: 0.29
7 | O=C(OCc1ccc2c(c1)OCO2)c1ccccc1 [Compound 7] | > 1000 | 843 | 243 | > 1 | > 1 | > 1 | > 1 | LDHB/LDHA [2]: > 1.18
8 | Cc1ccc(C(=O)OCc2ccc3c(c2)OCO3)cc1 [Compound 8] | 248 | > 1000 | 86.5 | > 1 | > 1 | > 1 | > 1 | –
9 | O=C(OCc1ccc2c(c1)OCO2)c1ccc([Se]c2ccccc2)cc1 [Compound 9] | – | – | – | – | – | – | – | IC50 ([1]; LDHB IC50, synthesized compounds): 1000 µM and 151 µM; IC50 [2]: > 1000 µM; GI50 ([3]; Homo sapiens, PANC-1, 48 h): 21.1 µM; GI50 ([4]; MIA PaCa-2, 48 h): 0.108 mM; GI50 (human glioma U87 cells): > 1 mM; GI50 ([5]; MCF7, 48 h): 0.455 mM; GI50 ([6]; A549, 48 h): 0.925 mM
10 | CCOC(=O)[C@H](CCc1ccccc1)N[C@@H](C)C(=O)N1CCC[C@H]1C(=O)O [Enalapril] | – | – | – | – | – | – | – | remaining at 0.5 h (in vitro [7]): 37.7%; remaining at 2 h (in vitro [7]): 1.8%; remaining at 0.5 h (in vitro [8]): 95%; remaining at 2 h (in vitro [8]): 93.7%
11 | COc1ncc(-c2ccc3c(Nc4cc(Oc5cc(F)cc(F)c5)cc(C(=O)O)c4)c(S(=O)(=O)NC4CC4)cnc3c2)c(OC)n1 [GSK2837808A, reference compound] | – | – | – | – | – | – | – | GI50 ([3]; MTT, 48 h): 11.3 µM
12 | CC(=O)N1CCN(c2ccc(OCC3COC(Cn4ccnc4)(c4ccc(Cl)cc4Cl)O3)cc2)CC1 (stereo not drawn) [Ketoconazole, reference compound] | – | – | – | – | – | – | – | CYP1A2 isozyme activity (% of control activity) (CYP1A2): 99.1 % of control activity; CYP2C9 isozyme activity (% of control activity) (CYP2C9): 97.5 % of control activity; CYP2C19 isozyme activity (% of control activity) (CYP2C19): > 100 % of control activity
13 | C[C@H](Cc1ccc2c(c1)OCO2)[C@@H](C)Cc1ccc2c(c1)OCO2 [Machilin A] | – | – | – | – | – | – | – | IC50 (LDHA): 84 µM
14 | CCN(CC)CCOC(=O)c1ccc(N)cc1 [Procaine] | – | – | – | – | – | – | – | remaining at 0.5 h (in vitro [7]): 89.8%; remaining at 2 h (in vitro [7]): 52.6%; remaining at 5 min (in vitro [8]): 1.5%; remaining at 10 min (in vitro [8]): 0.4%
15 | OCc1ccc2c(c1)OCO2 [piperonyl alcohol] | – | – | – | – | – | – | – | LDHA inhibitory activity (LDHA): did not exhibit an LDHA inhibitory activity
16 | GNE140 [reference compound] | – | – | – | – | – | – | – | GI50 ([3]; MTT, 48 h): 11.6 µM and 11.9 µM
